{"source": "patent US9161944B2", "about": "“Method for preventing cancer metastasis” (INSERM (INSTITUT NATIONAL DE LA SANTE ET DE LA SANTE ET DE …, priority 2010, dated 2015)", "key": {"[1]": {"target": "PhosphoLipase C (PLC)", "experiment": "PhosphoLipase C activity", "assay_type": "biochemical", "settings": "FIG. 11D", "experimental": "(§1) FIG. 11: Effects of JPH1701 on PAF receptor, PLC and PKCs activities. FIG. 11A) Histogram showing the percentage of control specific binding of 3H-C16-PAF to recombinant PAF receptor obtained from membrane homogenates of CHO cells by 0.3 and 2 μM edelfosine and by 0.3 and 2 μM JPH1701. FIG. 11B) Histogram showing the percentage of control agonist response (% effect i.e: increase of intracellular calcium concentration) of 0.3 and 2 μM edelfosine and JPH1701 on PAF receptor normalized to the response induced by 100 nM C16-PAF. […] FIG. 11C-D) Dose responses curves showing the effect of JPH1701 on PKCs (FIG. 11C, PKCs are: alpha, Beta 1, Beta 2, Gamma, Delta, Epsilon, Zeta, Eta, Theta, Iota) and PhosphoLipase C (PLC) activities (FIG. 11D)."}, "[2]": {"target": "PAF receptor (Homo sapiens, UniProt P25105)", "sequence (P25105 whole entry)": "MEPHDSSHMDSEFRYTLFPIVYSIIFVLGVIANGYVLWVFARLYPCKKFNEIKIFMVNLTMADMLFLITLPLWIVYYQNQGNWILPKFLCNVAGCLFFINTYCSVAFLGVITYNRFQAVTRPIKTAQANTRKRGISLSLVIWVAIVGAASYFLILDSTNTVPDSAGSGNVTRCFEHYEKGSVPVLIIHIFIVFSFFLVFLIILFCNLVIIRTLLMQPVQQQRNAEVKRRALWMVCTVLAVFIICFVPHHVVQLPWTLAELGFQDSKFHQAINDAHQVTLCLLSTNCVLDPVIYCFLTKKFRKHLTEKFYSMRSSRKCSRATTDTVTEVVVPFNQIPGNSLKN", "experiment": "3H-C16-PAF binding, membrane homogenates of CHO cells", "set-up": "expressed in transfected cells; host or cells: CHO cells (membrane homogenates)", "settings": "0.3 and 2 μM, FIG. 11A", "experimental": "as §1"}, "[3]": {"target": "T1, SK1 (Homo sapiens, UniProt Q92952)", "T1 construct": "expressed in transfected cells; host or cells: HEK293", "T1 sequence (Q92952 whole entry)": "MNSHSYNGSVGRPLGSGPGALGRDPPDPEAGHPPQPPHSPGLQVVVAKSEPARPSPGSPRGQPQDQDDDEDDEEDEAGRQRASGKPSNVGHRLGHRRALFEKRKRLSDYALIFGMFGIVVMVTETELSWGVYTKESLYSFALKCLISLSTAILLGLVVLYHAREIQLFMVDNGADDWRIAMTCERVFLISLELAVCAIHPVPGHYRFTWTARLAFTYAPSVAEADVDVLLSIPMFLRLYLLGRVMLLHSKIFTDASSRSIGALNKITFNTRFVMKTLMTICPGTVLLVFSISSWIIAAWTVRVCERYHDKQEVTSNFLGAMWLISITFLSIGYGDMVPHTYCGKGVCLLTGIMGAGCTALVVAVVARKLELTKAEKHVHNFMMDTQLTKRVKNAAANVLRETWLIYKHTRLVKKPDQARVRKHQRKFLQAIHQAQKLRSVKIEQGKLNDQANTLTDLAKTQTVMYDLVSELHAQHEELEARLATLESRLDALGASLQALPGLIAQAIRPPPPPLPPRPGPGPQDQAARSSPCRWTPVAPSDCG", "experiment": "Whole-cell K+ currents in HEK293 cells expressing recombinant SK1", "assay_type": "cell-based", "settings": "10 μM, FIG. 9B", "experimental": "FIG. 9. Selectivity effect of JPH1701 on SKCa subtype and on IKCa channels. FIG. 9A) Example of whole-cell K^+ currents recorded in HEK293 cells expressing recombinants SK1, SK2, SK3 and IKCa channels before and after application of 10 μM JPH1701 (upper graphs: SK1 and SK2 respectively, bottom graphs: SK3 and IKCa respectively). Currents were generated by ramp protocol from −100 mV to +60 mV in 500 ms from a constant holding of 0 mV and with a pCa 6. FIG. 9B) Histograms showing the effect of 10 μM JPH1701 on SKCa (SK1, SK2, SK3) and IKCa current amplitudes recorded at 0 mV. […] For each channel (SK1, SK2, SK3 and IKCa) the left column (pale grey) represents the control result and the right column (dark grey) represents the result after JPH1701 application.\nThe selectivity of JPH1701 toward the others members of the SKCa/IKCa channels was tested. […] The experimental protocol was similar to the one used in FIG. 8. JPH1701 was tested for membrane potential from +60 mV to −100 mV on 500 msec."}, "[4]": {"system": "LPA (lysophosphatidic acid) receptor", "experiment": "LPA receptor binding", "experimental": "Indeed, the molecular structure of JPH1701 resembles to LPA and PAF. This similarity between the molecular structures prompted us to analyse whether some of the JPH1701's effects were mediated through its binding to the PAF receptor or to the LPA (lysophosphatidic acid) receptor. […] The same results were obtained with LPA receptor (105.3±8.0% and 87.2±4.7% of LPA binding respectively at 0.3 and 2 μM JPH1701). It has been also reported that edelfosine inhibits enzyme activity like protein kinase C or phospholipase C that may explain some of its cytostatic and cytotoxic effects."}}, "data": [{"substance": "hexadecyloxy-2-O-methyl-sn-glycerol-lactose [JPH1701]", "values": [{"measurement": "IC50", "setting": "[1]", "value": 7, "unit": "µM"}, {"measurement": "Interaction with C16-PAF binding site of PAF receptor", "setting": "[2]", "value": "unable to interact"}, {"measurement": "Effect on SK1 current amplitude at 0 mV", "setting": "[3]", "value": "significantly reduced"}, {"measurement": "% of LPA binding", "setting": "[4]; 0.3 μM", "value": "105.3±8.0", "unit": "%"}, {"measurement": "% of LPA binding", "setting": "[4]; 2 μM", "value": "87.2±4.7", "unit": "%"}]}]}
